Data: publication PMC6811774, “Potent, selective, and subunit‐dependent activation of TRPC5 channels by a xanthine derivative” (British Journal of Pharmacology, 2019)
Several values for one entry are separate records, joined by “and”; a condition that tells them apart may be missing. Identical values can stand only once.

Experiments:
[1] = target: T1, TRPC5-SYFP2 (TRPC5:C5 channels) (Homo sapiens, UniProt Q9UL62); experiment: [Ca2+]i measurement (Fura-2, FlexStation) in (Tet+) HEK T-REx cells expressing hTRPC5-SYFP2; format: cell-based
T1 construct: expressed in transfected cells
T1 sequence (Q9UL62 1-973): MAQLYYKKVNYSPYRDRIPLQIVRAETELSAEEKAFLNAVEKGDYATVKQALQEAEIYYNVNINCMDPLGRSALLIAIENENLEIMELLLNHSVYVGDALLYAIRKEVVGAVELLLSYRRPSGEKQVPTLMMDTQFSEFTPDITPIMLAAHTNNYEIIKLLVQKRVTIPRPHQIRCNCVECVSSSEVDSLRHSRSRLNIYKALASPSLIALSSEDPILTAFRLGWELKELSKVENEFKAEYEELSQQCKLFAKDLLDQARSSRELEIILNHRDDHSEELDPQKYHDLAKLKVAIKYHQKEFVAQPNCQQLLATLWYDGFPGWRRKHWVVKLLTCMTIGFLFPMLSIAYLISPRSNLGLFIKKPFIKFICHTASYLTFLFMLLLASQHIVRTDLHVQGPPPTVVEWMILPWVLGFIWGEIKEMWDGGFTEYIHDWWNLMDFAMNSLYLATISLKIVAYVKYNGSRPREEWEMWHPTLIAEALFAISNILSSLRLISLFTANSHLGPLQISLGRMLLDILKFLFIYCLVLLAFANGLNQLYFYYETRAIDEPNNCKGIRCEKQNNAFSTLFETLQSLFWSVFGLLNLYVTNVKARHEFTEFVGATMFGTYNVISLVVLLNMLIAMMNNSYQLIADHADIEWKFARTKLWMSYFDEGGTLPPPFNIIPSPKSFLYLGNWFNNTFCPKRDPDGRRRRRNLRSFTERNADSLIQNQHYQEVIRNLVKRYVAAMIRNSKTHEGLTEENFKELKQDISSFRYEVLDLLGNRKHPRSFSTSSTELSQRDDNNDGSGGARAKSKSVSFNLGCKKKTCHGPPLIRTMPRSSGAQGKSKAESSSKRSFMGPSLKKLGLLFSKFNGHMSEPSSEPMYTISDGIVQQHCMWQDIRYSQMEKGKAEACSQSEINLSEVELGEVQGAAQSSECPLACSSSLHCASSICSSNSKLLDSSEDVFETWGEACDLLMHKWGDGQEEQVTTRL
Excerpt: To facilitate cloning of TRPC5‐SYFP2 and TRPC4‐SYFP2, a pcDNA™4/TO expression vector (ThermoFisher Scientific, Waltham, MA, USA), into which a four amino acid linker (ASAS) flanked by AgeI and SacII restriction sites had been introduced between EcoRI and XhoI restriction sites, was used (Naylor et al., 2016). Human TRPC4β was inserted between BamHI and AgeI restriction sites as described previously (Ludlow et al., 2017). Human TRPC5 (forward primer: 5′ GCTTGGTACCGCCACCATG 3′ and reverse primer: 5′ […] 3′) was inserted upstream of the linker between KpnI and AgeI restriction sites using hTRPC5/pcDNA™4/TO (Zeng et al., 2004) as a PCR template. Both constructs contained an N‐terminal Kozak sequence. SYFP2 was inserted downstream of the linker between SacII and XbaI restriction sites using pSYFP2‐C1 as a PCR template (forward primer, 5′ […] 3′; reverse primer, 5′ […] 3′). pSYFP2‐C1 was a gift from Dorus Gadella (Addgene plasmid #22878; http://n2t.net/addgene:22878; RRID:Addgene_22878; Kremers, Goedhart, van Munster, & Gadella, 2006). Plasmids were sequenced to verify identity.
HEK T‐REx™ cell line was transfected with TRPC5‐SYFP2 or TRPC4‐SYFP2 using FuGENE® HD transfection reagent. After 48 hr, cells were put under antibiotic selection using 400 μg·ml^−1 zeocin and 10 μg·ml^−1 blasticidin S (Invivogen, San Diego, California, USA). Medium changes were carried out regularly to remove dead cells. HEK T‐REx cells expressing tetracycline‐inducible human TRPC5, TRPC4–C1, and TRPC5–C1 were created as described previously (Akbulut et al., 2015; Ludlow et al., 2017; Rubaiy, Ludlow, Henrot, et al., 2017). TRPC5–C1 and TRPC4–C1 concatemers allow expression of functional channels with defined 2:2 stoichiometry that display ion permeability and current–voltage relationships distinct from those of homomeric TRPC4:C4 or TRPC5:C5 channels and consistent with those obtained upon co‐expression of TRPC1 with TRPC4 or TRPC5 (Ludlow et al., 2017; Rubaiy, Ludlow, Bon, & Beech, 2017; Rubaiy, Ludlow, Henrot, et al., 2017). Cells were cultured in DMEM‐F12 GlutaMAX (Invitrogen, Paisley, UK) containing 10% FBS (Sigma‐Aldrich, Gillingham, UK), with the addition of blasticidin (10 μg·ml^−1) and zeocin (400 μg·ml^−1) to maintain the stable incorporation of the tetracycline repressor and the channel of interest, respectively. Expression of proteins was induced by the addition of tetracycline (1 μg·ml^−1, 24 hr). Cells were maintained in a humidified incubator with 5% CO2 at 37°C. HEK 293 cells stably expressing tetracycline‐regulated human http://www.guidetopharmacology.org/GRAC/ObjectDisplayForward?objectId=494 were prepared similarly and have also been described previously (McHugh, Flemming, Xu, Perraud, & Beech, 2003). For experiments using transient co‐expression of TRPC1 and TRPC5, HEK cells at 40–60% confluency were transfected with pIRES2‐AcGFP1 and pIRES2‐DsRed‐Express2 plasmids containing human TRPC1 and TRPC5, respectively, using Lipofectamine 3000 (ThermoFisher Scientific, Yokohama, Japan). All experiments using transient expression were performed within 48 hr after transfection. A498 cells were cultured in Minimum Essential Medium containing Earle's salts (ThermoFisher Scientific, Loughborough, UK), supplemented with 10% FBS and penicillin–streptomycin (100 units per ml^−1, 100 μg·ml^−1; ThermoFisher Scientific, Loughborough, UK). CHO cells stably expressing http://www.guidetopharmacology.org/GRAC/ObjectDisplayForward?objectId=510 were maintained in Ham's Nutrient Mixture F12 (ThermoFisher Scientific, Loughborough, UK) supplemented with 10% FBS, penicillin–streptomycin, and 1 mg·ml^−1 G418 (InvivoGen, San Diego, California, USA). For experiments using hTRPC3 and hTRPC6, WT HEK 293 cells were transfected with hTRPC3 (Naylor et al., 2016) or hTRPC6 (cloned into pcDNA3) using jetPRIME® transfection reagent (VWR, Lutterworth, UK). Cells were assayed 48 hr after transfection. […]

TRPC5:C5 = tested on: TRPC5:C5; design: method as in Rubaiy, Ludlow, Henrot, et al., 2017; conditions: EA-mediated activation, 10 nM EA; ref Rubaiy, Ludlow, Henrot, et al., 2017; read-out: IC50, inhibition of TRPC5:C5; cited from earlier work

## Cn1c(=O)n(CCCO)c(=O)c2c1nc(Oc1cccc(OC(F)(F)F)c1)n2Cc1ccc(Cl)cc1 [Pico145, reference compound]
[1]
  IC50: 2 nM
[1]; 100 nM AM237
  Concentration giving maximal inhibition of AM237 response: 10 nM
  Hill slope, inhibition of AM237 response: –1.3
[1]; surmountable, parallel rightward shifts, confirmed by patch-clamp
  Mode of inhibition of AM237-mediated TRPC5:C5 activation: competitive antagonist
TRPC5:C5
  IC50: 1 nM and ~1 nM
